Three compounds from US7572923B2, “Indirubin derivatives having anticancer property against human cancer cell line” (Anygen Co., Ltd., priority 2004, dated 2009) can be followed below.

Each structure is given as a SMILES string.

One assay concerns human cancer cell line. The experiment in a line: Inhibition of cancer cell line proliferation, overall conclusion. The class given is cell-based. The conditions noted are these: conclusion from Table 2. The procedure:
(§1) For measuring the proliferation inhibition by indirubin compound, the method disclosed in K. Likhitwitayawuid et al. Journal. Nat. Prod. […] Followings are simple description of this method. The cancer cell line is diluted into 5×10^4 cfu/ml. Then, various concentrations of test compounds are added to 96 well microtiter plate containing diluted cell line. After incubating test plate for 3˜4 days at 37° C., the test plate is dried and Tris-base is added. Then, using ELISA plate detector, the absorbance at 515 nm is measured. IC50 is measured by non-linear regression method.

Assay [1] concerns RK3E-ras solid tumor. The experiment in a line: Histological appearance of tumor lesion, H&E stain. The class given is in vivo, Sprague Dawley rat. The conditions noted are these: rat tumor tissue. The procedure: (§2) 1×10^7 of RK3E-ras cells is injected to Sprague Dawley rat to induce solid tumor for 5 days and experimental groups of animals are employed by size and volume of tumor in these animals. 100 mM of indirubin derivative is injected to experimental group of animals 5 times in every other day.
To observe histological appearance of tumor lesion after indirubin derivatives 011, 012 and 030 treatment, tumor tissue is immobilized in para-formaldehyde solution and is treated with paraffin. Then, H&E stain is carried out. […] From this experiment, indirubin derivatives of the present invention induce apoptosis of tumor, which results in the suppression of tumor formation in tissue level. FIG. 8 is photography showing the appearance of tumor lesion after treating indirubin derivatives 011, 012 and 030 of present invention.

The subject of assay [2] is leukemia cell line (HL-60). The experiment in a line: Differentiation inducing effect, NBT reduction method. The class given is cell-based, human. Conditions: 3 days. The procedure: For measuring the differentiation inducing effect to acute bone merrow leukemia cell line (HL-60) by indirubin AGM compound, NBT (nitroblue tetrazolium) reduction reaction method is employed. The leukemia cell line is diluted into 2×10^5 cfu/ml. […] Incubated cells are washed with phosphate buffered saline (PBS). Then, they are further incubated in PBS solution containing 0.1% NBT and 200 ng/ml of PMA (phorbol 12-myristate 13-acetate) for 30 minutes at 37° C. Incubated cells are centrifuged and collected cells are washed with PBS solution. Using cell number counter, differentiated cells forming nitroblue formazan among total cells are counted.

Assay [3] concerns human leukemia cell line (HL-60). In words: Differentiation with low concentration 1,25-(OH)2D3 or ATRA, NBT reduction method. The class given is cell-based. The procedure:
For measuring the differentiation inducing effect to acute bone merrow leukemia cell line (HL-60) by indirubin AGM compound, NBT (nitroblue tetrazolium) reduction reaction method is employed. The leukemia cell line is diluted into 2×10^5 cfu/ml. After treating 20 μM and 1 μM concentrations of test compounds, test plate is incubated for 3 days at 37° C. in 5% CO2 incubator. Incubated cells are washed with phosphate buffered saline (PBS). Then, they are further incubated in PBS solution containing 0.1% NBT and 200 ng/ml of PMA (phorbol 12-myristate 13-acetate) for 30 minutes at 37° C. Incubated cells are centrifuged and collected cells are washed with PBS solution. Using cell number counter, differentiated cells forming nitroblue formazan among total cells are counted.
Next, we test if AGM compound of present invention can synergically induce the differentiation of acute bone merrow leukemia cell line when it is treated with low concentration of 1,25-dihydroxyvitamin D3[1,25-(OH)2D3] or all-trans retinoic acid (ATRA) known as differentiation inducing agent. […] […] As a positive control, conventional differentiation inducing agent is used.

The test system of assay [4] is RK3E-ras solid tumor. In words: Tumor suppression in RK3E-ras tumor induced rats. The class given is in vivo. The conditions noted are these: Sprague Dawley rat; for size and volume of tumor: 100 mM injected 5 times in every other day. The procedure: RK3E cell is one of rat kidney cell and it is immortalized by EA1 oncogene. […] Inventors prepares stable RK3E-k-ras cell line by infection of retroviral expression vector to express mutant k-ras of oncogene. Prepared cell line is intramuscularly infected to Sprague Dawley rat to induce tumor. […] Tumor suppression effect by indirubin derivatives 011, 012 and 030 is measured through tumor induced rats.
as §2
Tumor is measured by vernier caliper and the volume of tumor is calculated by Carlsso calculation method {V=1/2(a.b^2), a: long axis, b: short axis}.

The test system of assay [5] is RK3E-Ras cells. The experiment in a line: DNA fragmentation, agarose gel electrophoresis. The class given is cell-based, rat. Conditions: 10 μM. The procedure: We test if the decline of cell viability by indirubin derivative 011 relates to apoptosis of cell or not. Genomic DNA from cells treated with indirubin derivative 011 is isolated and fragmented. RK3E-Ras cell, 6×10^5/well is seeding on 6 well plate. After incubation of cells for 12˜24 hours, 10 μM of indirubin derivative 011 is treated with cells. As a control, cells without treating any compound or cells treating DMSO in same concentration are employed.

Assay [6] concerns human colon cancer cell line (Col2). The experiment in a line: Inhibition of cancer cell line proliferation, Col2. The class given is cell-based. Conditions: 96 h, 3˜4 days incubation, absorbance at 515 nm. The procedure: as §1
Assay [7] concerns RK3E-Ras cells. The experiment in a line: Annexin-V-FLUOS/propidium iodide double staining assay for apoptosis. The class given is cell-based, rat. Conditions: 1 μM, 24 hours. The procedure: Annexin-V-FLUOS/propidium iodide double staining assay is a sensitive method for measuring apoptosis in cell level by detecting exposed phosphatidyl serine in apoptotic cell membrane.
RK3E-Ras cell is seeding in 6×10^5 level on cover side. Indirubin derivatives 011, 012 and 030 are treated in 1 μM concentration for 24 hours. As a control, cells without treating any compound are employed. After 24 hours, cells are annexin-V-FLUOS/propidium iodide double stained using annexin-V-FLUOS staining kit. […] It is confirmed that apoptosis of cells treated with indirubin derivatives 011, 012 and 030 is processed.

Assay [8] deals with human leukemia cell line (HL-60). In words: Inhibition of cancer cell line proliferation, HL-60. The class given is cell-based. The conditions noted are these: HL-60, 96 h, HL60, 3˜4 days incubation, absorbance at 515 nm. The procedure: as §1
For assay [9], the system named is human stomach cancer cell line (SNU-638). In words: Inhibition of cancer cell line proliferation, SNU-638. The class given is cell-based. The conditions noted are these: 96 h, 3˜4 days incubation, absorbance at 515 nm. The procedure:
as §1

Assay [10] concerns RK3E-Ras cells. The experiment in a line: Cell viability by MTT assay. The class given is cell-based, rat. Conditions: 1, 10, 20, 40 μM, 6, 12, 24, 48 hours. The procedure: To measure the influence to cell viability by indirubin derivative, RK3E-Ras cell, 1×10^5/well is seeding on 24 well plate. After incubation of cells for 12˜24 hours, indirubin derivative 011 in various concentration (1 μM, 10 μM, 20 μM, 40 μM) are treated for 6, 12, 24, 48 hours respectively. As control, cells without treating any compound are employed. […] FIG. 1 show the decline of cell viability after treatment of indirubin derivative 011.
According to the same condition in Example 3, other indirubin derivative 012, 030 are treated to measure the influence to cell viability.
A general note: Tetrazolium dyes change colour on reduction, which living cells bring about.

Assay [11] relates to human abdominal cavity cancer cell line (HT 1080). The experiment in a line: Inhibition of cancer cell line proliferation, HT 1080. The class given is cell-based. Conditions: HT-1080, 96 h, HT108, 3˜4 days incubation, absorbance at 515 nm. The procedure: as §1
The subject of assay [12] is human lung cancer cell line (A549). In words: Inhibition of cancer cell line proliferation, A549. The class given is cell-based. The conditions noted are these: 96 h, 3˜4 days incubation, absorbance at 515 nm. The procedure: as §1
The test system of assay [13] is human cell line (HT 1080). The experiment in a line: Inhibition of cancer cell line proliferation, HT 1080. The class given is cell-based. The conditions noted are these: HT-1080, 96 h, read-out: IC50 HT108. The procedure:
as §1

For the compound `O=C1Nc2ccc([N+](=O)[O-])cc2C1=C1Nc2ccccc2C1=NO` [AGM011, 5′-nitro-1H,1′H-[2,3′] biindolylidene-3,2′-dione 3-oxime], the “inhibitor against proliferation of human cancer cell line” value with human cancer cell line was “effective inhibitor”. The “histological appearance of tumor lesion” value in the assay on RK3E-ras solid tumor [1] is reported as “necrosis or calcification of tumor is observed”. Also, the “% of Differentiation” value in [2] (0.2 μM compound) stood at 24.02 ± 0.85%. Further, in assay [3] (0.2 μM compound with 5 nM of 1,25-(OH)2D3), the “% of Differentiation, 1,25-(OH)2D3” value stood at 31.79 ± 0.87%. The “% of Differentiation, all-trans RA” value in assay [3] (0.2 μM compound with 50 nM of ATRA) was 34.87 ± 0.74%. Moreover, the “size and volume of tumor” value with RK3E-ras solid tumor [4] is on record as “decrease”. Also, the “suppression against tumor (tumor volume)” value with RK3E-ras solid tumor [4] (tumor volume by vernier caliper, V=1/2(a.b^2)) came to 80%. Further, the “DNA fragmentation” value is recorded as “some DNA fragmentation occurs” with RK3E-Ras cells [5] (12 hours) and “clear DNA fragmentation is detected” in the assay with RK3E-Ras cells [5] (24 hours). The IC50 was determined as 25.5 µM in [6]; 9.23 µM in assay [8]; 1.21 µM in assay [9]; 5.87 µM in assay [11]; 5.43 µM in assay [12]. Besides, the “annexin-V green fluorescence staining versus control” value in the assay with RK3E-Ras cells [7] is “far more stained by green fluorescence than cells of control group”. Besides, the “progress of apoptosis” value with RK3E-Ras cells [7] (FIG. 4) is “fast processed”. In the assay with RK3E-Ras cells [10], the “cell viability according to increase of compound concentration” value (shortened to “cell viability according to increase”) was “rapidly declined”.
`O=C1Nc2ccc(F)cc2C1=C1Nc2ccccc2C1=NO` [AGM012, 5′-fluoro-1H,1′H-[2,3′] biindolylidene-3,2′-dione 3-oxime]: the “inhibitor against proliferation of human cancer cell line” value in the assay with human cancer cell line is “effective inhibitor”. In the assay with RK3E-ras solid tumor [1], the “histological appearance of tumor lesion” value is on record as “necrosis or calcification of tumor is observed”. The “% of Differentiation” value in assay [2] (1 μM compound) stood at 32.71 ± 1.73%. Besides, the “% of Differentiation, 1,25-(OH)2D3” value in assay [3] (1 μM compound with 5 nM of 1,25-(OH)2D3) was 24.29 ± 1.34%. Besides, the “% of Differentiation, all-trans RA” value in [3] (1 μM compound with 50 nM of ATRA) was 54.81 ± 1.65%. For the same compound, the “size and volume of tumor” value in the assay with RK3E-ras solid tumor [4] was “decrease”. Moreover, the IC50 in assay [6] amounted to 64.2 µM; in assay [8], 89.3 µM; in assay [9], 2.06 µM; in assay [13], 3.41 µM; in assay [12], 13.2 µM. Further, the “annexin-V green fluorescence staining versus control” value in the assay with RK3E-Ras cells [7] is reported as “far more stained by green fluorescence than cells of control group”. Also, the “cell viability according to increase” value with RK3E-Ras cells [10] is on record as “rapid decline of cell viability”.
For `CC(C)(C)C(=O)Nc1ccc2c(c1)C(=C1Nc3ccccc3C1=NO)C(=O)N2` [AGM030, 5-NH-trimethylacetyl-indirubin-3-oxime], the “histological appearance of tumor lesion” value in the assay on RK3E-ras solid tumor [1] is reported as “necrosis or calcification of tumor is observed”. The “size and volume of tumor” value in the assay on RK3E-ras solid tumor [4] was “decrease”. The “annexin-V green fluorescence staining versus control” value in the assay with RK3E-Ras cells [7] is on record as “far more stained by green fluorescence than cells of control group”. The “cell viability according to increase” value in the assay on RK3E-Ras cells [10] was “rapid decline of cell viability”.

One may read the IC50 as the concentration that inhibits the measured activity by half.
